For 36 compounds, Ki results are on record in patent US9745328B2, “Flap modulators” (JANSSEN PHARMACEUTICA NV, priority 2013, dated 2017).

This assay has as its target human FLAP (Homo sapiens (Human), UniProt P20292). Description: FLAP binding assay (HTRF format). Conditions: human FLAP wild type. As to the method:
The ability of the compounds of the present invention to treat a FLAP-mediated disease and/or disorder, or associated symptoms or complications thereof, was determined using the following procedures. Binding assay data represent the average value obtained from two different assay plates, with samples run in duplicate on each plate. Human whole blood assay data represent a single replicate on an assay plate using whole blood from at least one healthy donor.
Data are expressed as a HTRF ratio.

[1] abbreviates: a calculated value of 0.000 indicates Ki less than 1 nM.

human FLAP, sequence (P20292 whole entry): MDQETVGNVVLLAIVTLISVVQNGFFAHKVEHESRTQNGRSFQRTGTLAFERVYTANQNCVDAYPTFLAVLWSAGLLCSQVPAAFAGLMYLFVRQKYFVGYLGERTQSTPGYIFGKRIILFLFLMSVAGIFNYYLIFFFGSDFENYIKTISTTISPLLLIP

The compound `CC(C)(O)CNS(=O)(=O)c1ccccc1-c1ccc(-c2cnc(N)cn2)c(F)c1` [Example 101, 4′-(5-Aminopyrazin-2-yl)-3′-fluoro-N-(2-hydroxy-2-methylpropyl)biphenyl-2-sulfonamide] returned a Ki (Table 6 (additional runs)) of 1.8 nM.
For `CC(C)(CCO)NS(=O)(=O)c1ccccc1-c1ccc(-c2cnc(N)cn2)c(F)c1` [Example 102, 4′-(5-Aminopyrazin-2-yl)-3′-fluoro-N-(3-hydroxy-1,1-dimethylpropyl)biphenyl-2-sulfonamide], the affinity (Table 6 (additional runs)), expressed as Ki, was 0.4 nM and the Ki under setting [1] is below 1 nM.
Take `CC(C)(CO)CNS(=O)(=O)c1ccccc1-c1ccc(-c2cnc(N)cn2)c(F)c1` [Example 103, 4′-(5-Aminopyrazin-2-yl)-3′-fluoro-N-(3-hydroxy-2,2-dimethylpropyl)biphenyl-2-sulfonamide]: the Ki reads like this: (Table 6 (additional runs)) 0.3 nM; under setting [1], below 1 nM.
For the compound `Nc1cnc(-c2ccc(-c3ccccc3S(=O)(=O)N[C@H]3CCCNC3=O)cc2F)cn1` [Example 108, (S)-4′-(5-aminopyrazin-2-yl)-3′-fluoro-N-(2-oxopiperidin-3-yl)-[1,1′-biphenyl]-2-sulfonamide], under “Table 6 (additional runs)”, the Ki turned out to be 9.5 nM.
As for `CC(C)[C@H](CO)NS(=O)(=O)c1ccccc1-c1ccc(-c2cnc(N)cn2)c(F)c1` [Example 109], under “Table 6 (additional runs)”, affinity was put at a Ki of 1.5 nM.
The compound `Nc1cnc(-c2ccc(-c3ccccc3S(=O)(=O)N[C@H]3CC[C@H](O)CC3)cc2F)cn1` [Example 110, trans 4′-(5-Aminopyrazin-2-yl)-3′-fluoro-N-(4-hydroxycyclohexyl)biphenyl-2-sulfonamide] registered a Ki (Table 6 (additional runs)) of 2.6 nM.
Take `Nc1cnc(-c2ccc(-c3ccccc3S(=O)(=O)N[C@H](CO)Cc3ccccc3)cc2F)cn1` [Example 116, (3),4-(5-aminopyrazin-2-yl)-3′-fluoro-N-(1-hydroxy-3-phenylpropan-2-yl)-[1,1′-biphenyl]-2-sulfonamide]: for the setting “Table 6 (additional runs)”, the Ki is 0.7 nM.
In the case of `C[C@@H]([C@@H](O)c1ccccc1)N(C)S(=O)(=O)c1ccccc1-c1ccc(-c2cnc(N)cn2)c(F)c1` [Example 118, 4′-(5-aminopyrazin-2-yl)-3′-fluoro-N-((1S,2S)-1-hydroxy-1-phenylpropan-2-yl)-N-methyl-[1,1′-biphenyl)-2-sulfonamide], the Ki by setting is: (Table 6 (additional runs)) 0.4 nM; under setting [1], below 1 nM.
Under “Table 6 (additional runs)”, `Nc1cnc(-c2ccc(-c3ccccc3S(=O)(=O)N3CC(O)C3)cc2F)cn1` [Example 119, 1-{[4′-(5-Aminopyrazin-2-yl)-3′-fluorobiphenyl-2-yl]sulfonyl}azetidin-3-ol] returned a Ki of 2.7 nM.
For the setting “Table 6 (additional runs)”, `CN[C@@H]1CCN(S(=O)(=O)c2ccccc2-c2ccc(-c3cnc(N)cn3)c(F)c2)C1` [Example 126, (R)-5-(3-Fluoro-2′-{[3-(methylamino)pyrrolidin-1-yl]sulfonyl}biphenyl-4-yl)pyrazin-2-amine] displayed a Ki of 141 nM.
The compound `Nc1cnc(-c2ccc(-c3ccccc3S(=O)(=O)N3CCc4[nH]ncc4C3)cc2F)cn1` [Example 128, 5-[3-Fluoro-2′-(1,4,6,7-tetrahydro-5H-pyrazolo[4,3-c]pyridin-5-ylsulfonyl)biphenyl-4-yl]pyrazin-2-amine] gave a Ki (Table 6 (additional runs)) of 0.8 nM.
The compound `Nc1cnc(-c2ccc(-c3ccccc3S(=O)(=O)NCCCCCO)cc2F)cn1` [Example 132, 4′-(5-Aminopyrazin-2-yl)-3′-fluoro-N-(5-hydroxypentyl)biphenyl-2-sulfonamide] registered a Ki (Table 6 (additional runs)) of 2.4 nM.
For the setting “Table 6 (additional runs)”, `Nc1cnc(-c2ccc(-c3ccccc3S(=O)(=O)N[C@H]3CC[C@@H](N)CC3)cc2F)cn1` [Example 134, N-(4-Aminocyclohexyl)-4′-(5-aminopyrazin-2-yl)-3′-fluorobiphenyl-2-sulfonamide] registered an inhibition constant (Ki) of 1.3 nM.
Take `Nc1cnc(-c2ccc(-c3ccccc3S(=O)(=O)N3c4ccccc4C[C@H]3CO)cc2F)cn1` [Example 135, (S)-(1-{[4′-(5-Aminopyrazin-2-yl)-3′-fluorobiphenyl-2-yl]sulfonyl}-2,3-dihydro-1H-indol-2-yl)methanol]: the inhibition constant Ki is, setting by setting: (Table 6 (additional runs)) 0.4 nM; under setting [1], below 1 nM.
As to `Nc1cnc(-c2ccc(-c3ccccc3S(=O)(=O)N(CCO)C3CCCCC3)cc2F)cn1` [Example 136, 4′-(5-Aminopyrazin-2-yl)-N-cyclohexyl-3′-fluoro-N-(2-hydroxyethyl)biphenyl-2-sulfonamide], the inhibitory constant (Ki) (Table 6 (additional runs)) was 0.5 nM.
`Nc1cnc(-c2ccc(-c3ccccc3S(=O)(=O)N(C3CCOCC3)C3CC3)cc2F)cn1` [Example 140, 4′-(5-Aminopyrazin-2-yl)-N-cyclopropyl-3′-fluoro-N-(tetrahydro-2H-pyran-4-yl)biphenyl-2-sulfonamide] showed a Ki (Table 6 (additional runs)) of 1.4 nM.
Where the note is “Table 6 (additional runs)”, `Nc1cnc(-c2ccc(-c3ccccc3S(=O)(=O)N3C[C@@H]4C(N)[C@@H]4C3)cc2F)cn1` (stereo partly drawn) [Example 143, (1R,5S)-3-((4′-(5-aminopyrazin-2-yl)-3′-fluoro-[1,1′-biphenyl]-2-yl)sulfonyl)-3-azabicyclo[3.1.0]hexan-6-amine] came in with a Ki of 8.5 nM.
Under “Table 6 (additional runs)”, `CC(CO)(CO)NS(=O)(=O)c1ccccc1-c1ccc(-c2cnc(N)cn2)c(F)c1` [Example 147, 4′-(5-Aminopyrazin-2-yl)-3′-fluora-N-[2-hydroxy-1-(hydroxymethyl)-1-methylethyl]piphenyl-2-sulfonamide] came in with an inhibition constant (Ki) of 0.6 nM.
Where the note is “Table 6 (additional runs)”, `CC(C)[C@@H](CO)NS(=O)(=O)c1ccccc1-c1ccc(-c2cnc(N)cn2)c(F)c1` [Example 148, (S)-4′-(5-aminopyrazin-2-yl)-3′-fluoro-N-(1-hydroxy-3-methylbutan-2-yl)-[1,1′-biphenyl]-2-sulfonamide] returned a Ki of 2.5 nM.
Where the note is “Table 6 (additional runs)”, `CC(C)(C)[C@H](CO)NS(=O)(=O)c1ccccc1-c1ccc(-c2cnc(N)cn2)c(F)c1` [Example 150, (R)-4′-(5-aminopyrazin-2-yl)-3′-fluoro-N-(1-hydroxy-3,3-dimethylbutan-2-yl)-[1,1′-biphenyl]-2-sulfonamide] came in with a Ki of 1.5 nM.
As for `CC(C)(C)OC(=O)NCCNS(=O)(=O)c1ccccc1-c1ccc(-c2cnc(N)cn2)c(F)c1` [Example 151], where the note is “Table 6 (additional runs)”, the Ki was found to be 1.3 nM.
`CC[C@@H](CO)NS(=O)(=O)c1ccccc1-c1ccc(-c2cnc(N)cn2)c(F)c1` [Example 153, (S)-4′-(5-aminopyrazin-2-yl)-3′-fluoro-N-(1-hydroxybutan-2-yl)-[1,1′-biphenyl]-2-suifonamide] showed a Ki (Table 6 (additional runs)) of 2.5 nM.
On to `Nc1cnc(-c2ccc(-c3ccccc3S(=O)(=O)N[C@@H]3c4ccccc4C[C@@H]3O)cc2F)cn1` [Example 161, 4′-(5-aminopyrazin-2-yl)-3′-fluoro-N-((1R,2S)-2-hydroxy-2,3-dihydro-1H-inden-1-yl)-[1,1′-biphenyl]-2-sulfonamide], for which the Ki was 0.4 nM (Table 6 (additional runs)) and below 1 nM under setting [1].
In turn, `Nc1cnc(-c2ccc(-c3ccccc3S(=O)(=O)Nc3ccc(C(F)(F)F)nc3)cc2F)cn1` [Example 163, 4′-(5-Aminopyrazin-2-yl)-3′-fluoro-N-[6-(trifluoromethyl)pyridin-3-yl]biphenyl-2-sulfonamide] registered an inhibition constant (Ki) (Table 6 (additional runs)) of 0.5 nM.
With `Nc1cnc(-c2ccc(-c3ccccc3S(=O)(=O)N3CCC(c4c[nH]cn4)CC3)cc2F)cn1` [Example 164, 5-(3-Fluoro-2′-{[4-(1H-imidazol-4′-yl)piperidin-1-yl]sulfonyl}biphenyl-4-yl)pyrazin-2-amine], affinity (Table 6 (additional runs)) was put at a Ki of 0.8 nM.
Same read-out and setting: the value for `N#CCCNS(=O)(=O)c1ccccc1-c1ccc(-c2cnc(N)cn2)c(F)c1` [Example 169, 4′-(5-Aminopyrazin-2-yl)-N-(2-cyanoethyl)-3′-fluorobiphenyl-2-sulfanamide] was 2.9 nM.
On the same count and under the same terms, the value for `N#CCCN(C1CC1)S(=O)(=O)c1ccccc1-c1ccc(-c2cnc(N)cn2)c(F)c1` [Example 172, 4′-(5-Aminopyrazin-2-yl)-N-(2-cyanoethyl)-N-cyclopropyl-3′-fluorobiphenyl-2-suifonamide] was 3.6 nM.
In the case of `CC1(NS(=O)(=O)c2ccccc2-c2ccc(-c3cnc(N)cn3)c(F)c2)COC1` [Example 173, 4′-(5-Aminopyrazin-2-yl)-3′-fluoro-N-(3-methyloxetan-3-yl)biphenyl-2-sulfonamide], where the note is “Table 6 (additional runs)”, the Ki was 0.8 nM.
Still for that read-out and setting: to `N#CCCN1CCN(S(=O)(=O)c2ccccc2-c2ccc(-c3cnc(N)cn3)c(F)c2)CC1` [Example 174, 3-(4-{[4′-(5-Aminopyrazin-2-yl)-3′-fluoroblphenyl-2-yl]sulfonyl}piperazin-1-yl)propanenitrile] belongs 2.4 nM.
In turn, `COC[C@H](C)NS(=O)(=O)c1ccccc1-c1ccc(-c2cnc(N)cn2)c(F)c1` [Example 175, (S)-4′-(5-aminopyrazin-2-yl)-3′-fluoro-N-(1-methoxypropan-2-yl)-[1,1′-biphenyl]-2-sulfonamide] gave a Ki (Table 6 (additional runs)) of 1.4 nM.
As to `Nc1cnc(-c2ccc(-c3ccccc3S(=O)(=O)N3CCN(c4cnccn4)CC3)cc2F)cn1` [Example 176, 5-{3-Fluoro-2′-[(4-pyrazin-2-ylpiperazin-1-yl)sulfonyl]biphenyl-4-yl}pyrazin-2-amine], the Ki is, setting by setting: (Table 6 (additional runs)) 0.5 nM; under setting [1], below 1 nM.
The corresponding values for `Nc1cnc(-c2ccc(-c3ccccc3S(=O)(=O)N3CCN(c4ncccn4)CC3)cc2F)cn1` [Example 177] are 0.5 nM and below 1 nM.
For `Nc1cnc(-c2ccc(-c3ccccc3N)cc2F)cn1` [Example 178, 5-(2′-Amino-3-fluorobiphenyl-4-yl)pyrazin-2-amine], the inhibition constant Ki (Table 6 (additional runs)) is around 1320 nM.
For `Nc1cnc(-c2ccc(-c3ccccc3S(=O)(=O)NC3(CO)CCCC3)cc2F)cn1` [Example 179], the Ki is 0.4 nM (Table 6 (additional runs)) and below 1 nM under setting [1].
Compound `Nc1cnc(-c2ccc(-c3ccccc3NS(=O)(=O)N3CCCC3)cc2F)cn1` [Example 181, N-[4′-(5-Aminopyrazin-2-yl)-3′-fluorobiphenyl-2-yl]pyrroildine-1-sulfonamide] yielded a Ki (Table 6 (additional runs)) of 6.7 nM.
Compound `Nc1cnc(-c2ccc(-c3ccccc3S(=O)(=O)N3CC[C@H](O)C3)cc2F)cn1` [Example 184, (3S)-1-{[4′-(5-Aminopyrazin-2-yl)-3′-fluorobiphenyl-2-yl]sulfonyl}pyrrolidin-3-ol] returned an inhibitory constant (Ki) (Table 6 (additional runs)) of 8.9 nM.
